Measured values from ChEMBL document CHEMBL1201862, “PubChem BioAssay data set” (2004).
Each block holds one molecule with its values, some of them ahead of it. The source made the active and inactive calls.

What was measured:
[1] = target: Mothers against decapentaplegic homolog 3 (Homo sapiens, UniProt P84022); assay: blockers of Smad3 complex formation in lysate – cell lysate, secondary confirmation, chemiluminescent ELISA, HEK293 lysate, dose response (AID 1058); assay type: functional
[2] = target: T1, Intestinal-type alkaline phosphatase (Homo sapiens, UniProt P09923); assay: Dose Response confirmation of uHTS hits from a small molecule inhibitors of human intestinal alkaline phosphatase via a luminescent assay. [Related pubchem assays (depositor defined):AID2544, AID2574]; assay type: functional
[3] = target: T1, Intestinal-type alkaline phosphatase; assay: human intestinal alkaline phosphatase activators, dose response, biochemical, luminescence, uHTS hits (AID 463120); assay type: functional
Cytochrome P450 2C19 = Cytochrome P450 2C19 (Homo sapiens, UniProt P33261); assay: qHTS Assay for Inhibitors and Substrates of Cytochrome P450 2C19. [Related pubchem assays: 410 ]; assay type: ADME; details: read-out: Potency
Cytochrome P450 2C9 = Cytochrome P450 2C9 (Homo sapiens, UniProt P11712); details: Potency
[4] = target: Cyclin-dependent kinase 5/CDK5 activator 1 (Homo sapiens, UniProt Q00535); assay: blockade of human CDK5 activity – biochemical, cherry-picked samples, set 2, dose response (AID 504545)
HeLa = assay: viability loss in HeLa cells – cell-based, 24 h, cherry-picked samples, cytotoxicity control, dose response (AID 504726); assay type: functional; details: Homo sapiens;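 also: potency for cytotoxicity as loss of luminescence signal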
[5] = target: T2, Polyadenylate-binding protein 1 (Homo sapiens, UniProt P11940); assay: MLLE binding blockers, Cy5 peptide tracer – biochemical, fluorescence polarization, Cy5-PAM2 peptide, secondary, miRNA deadenylation inhibitor project, dose response (AID 602260); assay type: functional; details: read-out: IC50_Mean
[6] = target: T2, Polyadenylate-binding protein 1; assay: MLLE domain peptide-binding blockers, IC50 – biochemical, fluorescence polarization, FITC-PAM2 peptide, dose response (AID 602259); assay type: functional; details: read-out: IC50_Mean
[7] = inhibition of ARNT PAS-B/TACC3 complex formation – biochemical, AlphaScreen, cherry-picked samples, confirmation (AID 651703); assay type: functional, Homo sapiens;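 also: His-tagged ARNT PAS-B domain paired with GST-TACC3 E629A dimer coactivator fragment; potency of inhibitors that break up the complex and lower AlphaScreen signal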
[8] = viability loss in THP-1 monocytes – THP-1 cells, cytotoxicity control for Vif-APOBEC3G degradation inhibitor project, dose response (AID 1117359); assay type: functional; details: THP-1
[9] = target: Potassium voltage-gated channel subfamily KQT member 2 (Rattus norvegicus, UniProt O88943); assay: potentiation of rat KCNQ2 current – cell-based, retigabine-insensitive compounds, dose response (AID 2654); assay type: functional
Protein Rev = Protein Rev (Human immunodeficiency virus type 1 group M subtype B (isolate WMJ22)(HIV-1), UniProt P05866); assay: inhibitors of Rev protein–RRE RNA complex – biochemical, protein-RNA interaction, dose response (AID 842); design: species or system Human immunodeficiency virus 1
[10] = viability of uninfected HEp-2 cells – cell-based, HTS, cytotoxicity control for RSV inhibitor project, dose response (AID 2410); assay type: functional; details: human respiratory syncytial virus
[11] = tested on: Streptococcus sp. 'group A'; assay: Streptococcus pyogenes SK(-)GAS viability under kanamycin – luminescence, BacTiterGlo, confirmation, counter-screen for streptokinase expression inhibitor project, dose response (AID 1900); assay type: functional, organism-based
Streptococcus = assay: GAS UMAA2166 growth inhibition – luminescence, BacTiterGlo, counter-screen for streptokinase expression inhibitor project, dose response (AID 1915); assay type: functional, organism-based;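 also: potency for reduction of bacterial viability or growth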
[12] = Luminescence Cell-Based Dose Retest to Confirm Inhibitors of Cancer Stem Cells. [Related pubchem assays (depositor defined):AID2717, AID2721]; assay type: functional; details: Homo sapiens
X-box-binding protein 1 = X-box-binding protein 1 (Homo sapiens, UniProt P17861); assay type: functional, Cricetulus griseus;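 also: confirmatory dose-response counter-screen serving a CHOP assay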
Staphylococcus aureus = assay: Inhibitors of Bacterial Quorum Sensing Structure Activity Relationship (SAR) Analysis: Dose Response Assay. [Related pubchem assays: 700, 527 ]; assay type: functional, organism-based
[13] = target: Metabotropic glutamate receptor 4 (Homo sapiens, UniProt Q14833); assay: Modulation of the Metabotropic Glutamate Receptor mGluR4: Potency at human mGluR4. Modulation of intracellular Ca2+ using Fluo-4, AM, in CHO expressing recombinant receptor [Related pubchem assays (depositor defined):AID2437, AID2807]; assay type: functional, cell-based
[14] = target: Metabotropic glutamate receptor 4 (Rattus norvegicus, UniProt P31423); assay: Modulation of the Metabotropic Glutamate Receptor mGluR4: Rat PAM Potency. [Related pubchem assays (depositor defined):AID2437, AID2807]; assay type: functional
Metabotropic glutamate receptor 4 (Rattus norvegicus, UniProt P31423), sequence (P31423 whole entry): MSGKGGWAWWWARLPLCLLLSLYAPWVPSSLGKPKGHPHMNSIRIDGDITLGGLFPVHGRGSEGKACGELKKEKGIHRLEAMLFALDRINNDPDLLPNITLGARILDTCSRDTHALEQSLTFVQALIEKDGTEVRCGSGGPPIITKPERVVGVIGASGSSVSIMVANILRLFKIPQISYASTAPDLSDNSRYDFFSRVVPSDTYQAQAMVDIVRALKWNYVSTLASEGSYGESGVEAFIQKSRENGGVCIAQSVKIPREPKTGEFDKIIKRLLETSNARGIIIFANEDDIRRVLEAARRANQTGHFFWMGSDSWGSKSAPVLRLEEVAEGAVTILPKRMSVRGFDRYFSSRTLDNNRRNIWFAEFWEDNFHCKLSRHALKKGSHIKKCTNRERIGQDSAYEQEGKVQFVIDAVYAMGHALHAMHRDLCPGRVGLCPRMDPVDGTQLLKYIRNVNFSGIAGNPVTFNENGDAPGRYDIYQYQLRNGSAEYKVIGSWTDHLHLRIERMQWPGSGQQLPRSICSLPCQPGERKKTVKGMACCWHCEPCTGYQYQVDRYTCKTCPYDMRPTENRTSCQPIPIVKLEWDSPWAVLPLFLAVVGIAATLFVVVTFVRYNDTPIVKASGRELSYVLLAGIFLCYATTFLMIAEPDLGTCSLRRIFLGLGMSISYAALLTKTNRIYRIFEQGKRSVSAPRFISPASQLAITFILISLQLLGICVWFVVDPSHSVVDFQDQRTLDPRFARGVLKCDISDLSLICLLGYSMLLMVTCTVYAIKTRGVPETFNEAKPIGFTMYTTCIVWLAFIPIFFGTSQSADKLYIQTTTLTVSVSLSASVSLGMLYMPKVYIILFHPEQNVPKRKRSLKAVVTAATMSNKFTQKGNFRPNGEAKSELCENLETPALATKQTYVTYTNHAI

T2 sequence (P11940 whole entry, the tested form may be a part): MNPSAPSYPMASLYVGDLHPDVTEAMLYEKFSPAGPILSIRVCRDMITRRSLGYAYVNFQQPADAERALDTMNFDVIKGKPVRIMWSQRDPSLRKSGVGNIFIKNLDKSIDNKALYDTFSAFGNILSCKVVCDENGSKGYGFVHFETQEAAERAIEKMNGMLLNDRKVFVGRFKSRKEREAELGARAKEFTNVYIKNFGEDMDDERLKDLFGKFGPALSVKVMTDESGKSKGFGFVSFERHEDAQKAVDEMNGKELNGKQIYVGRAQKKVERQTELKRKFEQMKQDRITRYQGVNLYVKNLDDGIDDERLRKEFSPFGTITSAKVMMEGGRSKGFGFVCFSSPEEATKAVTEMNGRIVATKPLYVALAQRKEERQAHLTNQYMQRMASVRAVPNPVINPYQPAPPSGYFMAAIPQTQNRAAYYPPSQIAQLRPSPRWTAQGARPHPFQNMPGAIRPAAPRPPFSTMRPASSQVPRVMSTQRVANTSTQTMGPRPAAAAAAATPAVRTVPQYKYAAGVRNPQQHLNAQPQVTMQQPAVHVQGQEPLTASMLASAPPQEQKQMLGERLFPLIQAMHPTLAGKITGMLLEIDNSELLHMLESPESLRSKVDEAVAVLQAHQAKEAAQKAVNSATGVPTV
T1 sequence (P09923 whole entry): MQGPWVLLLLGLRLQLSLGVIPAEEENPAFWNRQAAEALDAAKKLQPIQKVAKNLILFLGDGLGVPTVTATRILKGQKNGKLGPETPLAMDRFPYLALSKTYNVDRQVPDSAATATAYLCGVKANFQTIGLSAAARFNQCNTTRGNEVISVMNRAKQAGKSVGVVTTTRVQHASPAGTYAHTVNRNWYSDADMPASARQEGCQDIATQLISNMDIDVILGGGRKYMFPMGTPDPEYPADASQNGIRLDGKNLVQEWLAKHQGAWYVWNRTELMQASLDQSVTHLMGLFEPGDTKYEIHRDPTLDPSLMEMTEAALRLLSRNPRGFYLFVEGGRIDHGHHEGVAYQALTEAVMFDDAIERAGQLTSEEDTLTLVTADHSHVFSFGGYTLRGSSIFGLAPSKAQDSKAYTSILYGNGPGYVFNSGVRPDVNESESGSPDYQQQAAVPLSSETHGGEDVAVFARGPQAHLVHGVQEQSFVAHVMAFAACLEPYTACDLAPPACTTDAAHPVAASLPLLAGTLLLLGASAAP
Mothers against decapentaplegic homolog 3, sequence (P84022 whole entry): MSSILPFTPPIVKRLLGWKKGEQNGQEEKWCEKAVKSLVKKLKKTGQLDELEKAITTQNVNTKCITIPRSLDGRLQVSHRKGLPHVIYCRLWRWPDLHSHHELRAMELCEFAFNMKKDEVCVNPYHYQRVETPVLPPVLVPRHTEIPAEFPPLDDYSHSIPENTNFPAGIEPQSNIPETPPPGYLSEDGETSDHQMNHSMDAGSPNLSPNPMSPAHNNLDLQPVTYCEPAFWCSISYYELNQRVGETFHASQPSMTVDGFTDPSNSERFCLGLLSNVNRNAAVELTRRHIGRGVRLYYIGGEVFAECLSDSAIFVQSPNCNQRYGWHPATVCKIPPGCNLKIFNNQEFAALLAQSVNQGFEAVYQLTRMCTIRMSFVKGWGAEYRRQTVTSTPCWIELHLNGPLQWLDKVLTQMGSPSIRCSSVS
Metabotropic glutamate receptor 4 (Homo sapiens, UniProt Q14833), sequence (Q14833 whole entry): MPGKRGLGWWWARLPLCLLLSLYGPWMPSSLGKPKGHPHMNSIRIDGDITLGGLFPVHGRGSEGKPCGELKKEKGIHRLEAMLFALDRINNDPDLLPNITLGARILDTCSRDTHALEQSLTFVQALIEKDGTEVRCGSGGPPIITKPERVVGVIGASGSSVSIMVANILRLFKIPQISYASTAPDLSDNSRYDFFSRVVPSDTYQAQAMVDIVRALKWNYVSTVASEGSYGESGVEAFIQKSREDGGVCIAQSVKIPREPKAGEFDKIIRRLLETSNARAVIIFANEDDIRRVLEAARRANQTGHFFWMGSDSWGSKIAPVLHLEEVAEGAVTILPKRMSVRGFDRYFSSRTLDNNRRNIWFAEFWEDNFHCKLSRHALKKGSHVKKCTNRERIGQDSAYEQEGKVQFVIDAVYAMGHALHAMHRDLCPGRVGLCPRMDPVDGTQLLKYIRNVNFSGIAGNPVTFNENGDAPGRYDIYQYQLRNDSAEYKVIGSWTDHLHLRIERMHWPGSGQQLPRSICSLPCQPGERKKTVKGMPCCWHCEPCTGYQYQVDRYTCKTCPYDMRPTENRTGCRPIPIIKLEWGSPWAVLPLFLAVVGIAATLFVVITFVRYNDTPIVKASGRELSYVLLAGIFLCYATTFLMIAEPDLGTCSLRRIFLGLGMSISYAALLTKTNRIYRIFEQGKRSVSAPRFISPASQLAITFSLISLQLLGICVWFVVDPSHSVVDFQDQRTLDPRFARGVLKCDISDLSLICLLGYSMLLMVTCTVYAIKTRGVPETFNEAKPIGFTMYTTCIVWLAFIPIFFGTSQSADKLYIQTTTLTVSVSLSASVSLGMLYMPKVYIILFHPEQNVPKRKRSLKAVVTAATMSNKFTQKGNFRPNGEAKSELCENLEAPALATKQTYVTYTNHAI
Cytochrome P450 2C19, sequence (P33261 whole entry): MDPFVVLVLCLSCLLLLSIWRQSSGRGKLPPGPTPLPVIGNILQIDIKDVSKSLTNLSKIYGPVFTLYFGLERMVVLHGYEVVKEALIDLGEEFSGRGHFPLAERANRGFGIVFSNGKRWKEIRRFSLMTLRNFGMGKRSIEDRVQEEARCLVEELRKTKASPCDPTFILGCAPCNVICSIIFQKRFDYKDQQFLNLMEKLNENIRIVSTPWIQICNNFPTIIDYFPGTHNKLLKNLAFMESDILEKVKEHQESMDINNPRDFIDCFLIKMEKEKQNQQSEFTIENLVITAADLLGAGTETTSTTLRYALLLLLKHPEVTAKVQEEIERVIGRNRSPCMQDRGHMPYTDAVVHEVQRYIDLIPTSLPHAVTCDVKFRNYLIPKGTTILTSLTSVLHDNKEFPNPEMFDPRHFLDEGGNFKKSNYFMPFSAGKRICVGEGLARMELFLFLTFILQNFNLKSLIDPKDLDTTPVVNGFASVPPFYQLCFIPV
X-box-binding protein 1, sequence (P17861 whole entry): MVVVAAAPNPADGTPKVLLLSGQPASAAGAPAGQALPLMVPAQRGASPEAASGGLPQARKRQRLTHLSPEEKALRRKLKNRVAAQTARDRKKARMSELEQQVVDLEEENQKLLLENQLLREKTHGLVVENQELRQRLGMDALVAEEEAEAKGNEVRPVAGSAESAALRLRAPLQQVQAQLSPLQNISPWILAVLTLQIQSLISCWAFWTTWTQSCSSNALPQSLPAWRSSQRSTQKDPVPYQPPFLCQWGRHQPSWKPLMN
Potassium voltage-gated channel subfamily KQT member 2, sequence (O88943 whole entry): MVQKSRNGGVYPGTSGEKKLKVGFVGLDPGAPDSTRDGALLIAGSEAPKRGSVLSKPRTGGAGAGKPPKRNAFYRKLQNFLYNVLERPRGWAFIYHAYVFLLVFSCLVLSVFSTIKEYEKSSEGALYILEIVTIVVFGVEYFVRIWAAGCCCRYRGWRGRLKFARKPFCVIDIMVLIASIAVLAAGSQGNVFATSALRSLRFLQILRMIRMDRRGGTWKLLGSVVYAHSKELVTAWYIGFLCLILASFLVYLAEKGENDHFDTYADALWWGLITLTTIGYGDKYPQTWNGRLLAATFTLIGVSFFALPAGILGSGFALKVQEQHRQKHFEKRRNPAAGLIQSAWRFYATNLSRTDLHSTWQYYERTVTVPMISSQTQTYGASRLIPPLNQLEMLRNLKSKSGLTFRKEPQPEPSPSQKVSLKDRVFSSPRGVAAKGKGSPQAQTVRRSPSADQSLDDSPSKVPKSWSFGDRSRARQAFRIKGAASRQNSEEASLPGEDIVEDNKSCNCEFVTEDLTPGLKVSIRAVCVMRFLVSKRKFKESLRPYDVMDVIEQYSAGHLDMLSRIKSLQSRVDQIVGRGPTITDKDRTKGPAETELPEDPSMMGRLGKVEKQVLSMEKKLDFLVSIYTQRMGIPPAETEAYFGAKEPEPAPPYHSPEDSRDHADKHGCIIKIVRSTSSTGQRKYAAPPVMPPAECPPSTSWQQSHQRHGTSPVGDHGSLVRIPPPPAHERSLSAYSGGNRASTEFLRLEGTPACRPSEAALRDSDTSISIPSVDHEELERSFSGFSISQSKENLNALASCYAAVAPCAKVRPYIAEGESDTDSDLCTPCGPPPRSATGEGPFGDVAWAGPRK

SMILES: CN(Cc1cnc2nc(N)nc(N)c2n1)c1ccc(C(=O)NC(CCC(=O)O)C(=O)O)cc1 (configuration not stated)
- AC50 (HeLa): 0.629 µM (active)
- IC50 [5]: 52.1 µM (inactive)
- IC50 [6]: 41.6 µM (inactive)
- AC50 [7]: 74.5 µM (active)
- CC50 [8]: 0.23 µM (active)

SMILES: COc1ccc(Nc2nc(N)nc(CN(C)C3CCCCC3)n2)cc1
- IC50 (Protein Rev): > 79.4 µM (not active)
- AC50 [7]: 90.7 µM (active)

SMILES: CCc1cc(-c2[nH]nc(C)c2Oc2ccc(C(C)C)cc2)c(O)cc1O
- CC50 [10]: 15.9 µM (active)
- EC50 [11]: 2.28 µM (active)
- EC50 (Streptococcus): 4.99 µM (active)
- AC50 [12]: 3.13 µM (active)
- Absolute IC50 (XBP1) (X-box-binding protein 1): < 10 µM

SMILES: O=C(O)c1ccccc1NC(c1ccccc1)c1ccc(Cl)cc1 (configuration not stated)
- IC50 (Staphylococcus aureus): 0.448 µM (active)

Results, then the molecule that gave them:

- IC50 [1]: < 2.5 µM (not active)
SMILES: COc1cccc(C(c2cc3c(cc2O)OCO3)N2CCCC2)c1O (configuration not stated)

- IC50 [2]: > 100 µM (inactive)
- EC50 [3]: > 100 µM (inactive)
SMILES: CC(=O)Nc1ccc(NC(=O)C2CC(=O)N(C(C)C)C2)cc1 (configuration not stated)

- AC50 (Cytochrome P450 2C19): 39.8 µM (inconclusive)
- AC50 (Cytochrome P450 2C9): 25.1 µM (inconclusive)
SMILES: CC(C)[C@@H](CC(=O)N[C@@H]1CCNC[C@H]1C(=O)N[C@H](CC(=O)N[C@@H](CCC(=O)O)CC(=O)O)Cc1ccccc1)NC(=O)C[C@H](CO)NC(=O)[C@@H]1CNCC[C@H]1N

- AC50 [4]: 43.3 µM (active)
SMILES: Cc1ccc(-n2nc(C)c3c2C(Br)C(C)(C)CC3=O)nc1 (configuration not stated)

- EC50 [9]: 6.85 µM (active)
SMILES: O=C(Nc1ccc(Cl)cc1)Nc1cccnc1

- EC50 [13]: 9.66 µM (active)
- EC50 [14]: 7.17 µM (active)
SMILES: O=C(Nc1ccc2c(c1)OCO2)c1ccccn1
